Source: patent US20250032530A1, “USE OF AURANOFIN AS AN INHIBITOR OF ATYPICAL PROTEIN KINASE C FOR TREATMENT OF NEURODEGENERATIVE DISORDERS” (UNIVERSITY OF SOUTH FLORIDA, priority 2021, published 2025)
pIC50: −log10 of the molar value. Like-named read-outs stand apart in the source and are kept apart here.

Experiments:
[1] = system: aPKC, Akt2, AMP-activated kinase (AMPK), FoxO1; conditions: isolated human hepatocytes; cited from earlier work
aPKC = conditions: cited from earlier work
[2] = system: recombinant forms of PKC-α, PKC-β, PKC-δ, PKCε, or PKC-θ; conditions: cited from earlier work
recombinant PKC-ι/λ [3] = biological target: T1, recombinant PKC-ι/λ (Homo sapiens, UniProt P41743); conditions: cited from earlier work
T1 sequence (P41743 1-596): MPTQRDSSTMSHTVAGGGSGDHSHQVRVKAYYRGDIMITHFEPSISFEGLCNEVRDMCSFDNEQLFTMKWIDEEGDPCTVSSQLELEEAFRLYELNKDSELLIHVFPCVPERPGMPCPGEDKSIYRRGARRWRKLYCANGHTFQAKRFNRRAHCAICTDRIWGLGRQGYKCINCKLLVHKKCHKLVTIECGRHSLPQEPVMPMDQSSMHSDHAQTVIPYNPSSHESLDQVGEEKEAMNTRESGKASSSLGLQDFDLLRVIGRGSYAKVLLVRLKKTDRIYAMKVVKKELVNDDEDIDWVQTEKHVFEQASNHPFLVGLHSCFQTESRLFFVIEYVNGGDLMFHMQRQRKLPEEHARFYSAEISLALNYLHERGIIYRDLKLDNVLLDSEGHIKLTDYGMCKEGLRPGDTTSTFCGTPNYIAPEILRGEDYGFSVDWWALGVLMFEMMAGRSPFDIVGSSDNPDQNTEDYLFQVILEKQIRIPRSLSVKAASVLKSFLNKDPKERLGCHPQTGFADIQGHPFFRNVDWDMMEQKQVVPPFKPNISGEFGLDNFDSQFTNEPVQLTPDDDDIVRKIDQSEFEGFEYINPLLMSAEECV

Akt = test: Insulin-induced Akt activation in LA1-5s neuronal cells; assay type: cell-based, human; conditions: 200 nM insulin, 24 hours
From the text: (§1) Cell lysates were subjected to Western analyses for phosphorylated/activated forms of aPKC, NFκB and Akt. Representative blots of indicated proteins are shown in upper bands. […] Bargrams show Mean±SEM of 3-4 determinations. Asterisks indicate P<0.05; comparison of designated group versus the uninhibited, insulin-treated group (ANOVA).
(§2) LA1-5s neuronal cells were originally obtained from non-catecholamine-producing neuroblastoma of a person and are commercially available from the European Collection of Authenticated Cell Cultures. Incubation conditions were as described.
(§3) As described, western analyses were conducted with rabbit antisera, using: anti-aPKC [recognizes a C-terminal sequence in all aPKCs (Santa Cruz Biotechnologies, Santa Cruz, CA, USA)]; anti-phospho-threonine (thr)-560/555-PKC-ζ/λ/ι [recognizes a phosphopeptide sequence present in all aPKCs and indicates activation (Invitrogen, Carlsbad, CA, USA)]; anti-phospho-serine (ser)-473-Akt [recognizes a phosphopeptide sequence at 60 kDa present in all Akt's-1/2/3 and indicates activation (Cell Signaling Technologies, Danvers, MA, USA)]; anti-4 kDa-AP1-40/42 (Cell Signaling Technologies, Danvers, MA, USA); anti-mouse-70 kDa-BACE1 and anti-human-70 kDa-BACE1 (ThermoFisher); and anti-phospho-threonine (thr)-231-tau (Gene Tex, Irvine, CA, USA). […]

recombinant PKC-ι/λ [4] = biological target: T1, recombinant PKC-ι/λ; test: Inhibition of recombinant PKC-ι/λ; assay type: biochemical; conditions: Example 2
Protocol: 1H-imidazole-4-carboxamide,-5-amino-1-[2,3-dihydroxy-4-[(hydroxyl)methyl]cyclopentyl-[1R-(1a,2b,3b,4a)] […] (ICAPP).
aPKC Inhibitors. We identified by HTS compounds that target the substrate-binding site of aPKCs and potently (IC50s10-30 nM) inhibit recombinant PIP3-dependent aPKCs, but not DAG-dependent PKCs. Three compounds have been studied in detail: (a) 1H-imidazole-4-carboxamide, 5-amino-1-[2,3-dihydroxy-4-[(phosphono-oxy)methyl]cyclopentyl-[1R-(1a,2b,3b,4a)] […] Thus, these agents can reduce brain aPKC activity, indirectly at lower doses by inhibiting liver aPKC and correcting hyperinsulinemia in insulin-resistant states, and, at higher doses, by acting directly on brain PKC-λ/ι.

BACE1 = BACE1 levels in LA1-5s neuronal cells treated with insulin; assay type: cell-based, human
Protocol: Values of BACE1 are Mean±SEM of 4 values. Asterisks indicate P<0.05 for comparison of designated group versus the untreated control group (ANOVA).
as §2
As described, western analyses were conducted with rabbit antisera, using: anti-aPKC [recognizes a C-terminal sequence in all aPKCs (Santa Cruz Biotechnologies, Santa Cruz, CA, USA)]; anti-phospho-threonine (thr)-560/555-PKC-ζ/λ/ι [recognizes a phosphopeptide sequence present in all aPKCs and indicates activation (Invitrogen, Carlsbad, CA, USA)]; anti-phospho-serine (ser)-473-Akt [recognizes a phosphopeptide sequence at 60 kDa present in all Akt's-1/2/3 and indicates activation (Cell Signaling Technologies, Danvers, MA, USA)]; anti-4 kDa-AP1-40/42 (Cell Signaling Technologies, Danvers, MA, USA); anti-mouse-70 kDa-BACE1 and anti-human-70 kDa-BACE1 (ThermoFisher); and anti-phospho-threonine (thr)-231-tau (Gene Tex, Irvine, CA, USA). Samples from all experimental groups within each study were compared on the same blots and routinely checked with loading controls. All comparisons in histograms were made relative to the mean value of the basal control group, i.e., wild-type mice consuming standard low-fat mouse chow, untreated with insulin or aPKC inhibitors, and having normal levels of aPKCs and other cellular proteins.

NFκB = test: Insulin-induced NFκB activity in LA1-5s neuronal cells; assay type: cell-based, human; conditions: 200 nM insulin, 24 hours; 1 μM ACPD, increasing concentrations of auranofin
From the text: as §1, §2, §3

[5] = system: PKC-λ/ι activity, BACE1 activity, Aβ1-40/42; conditions: LA1-5s neuronal cells, previously reported; cited from earlier work
recombinant PKC-ζ = biological target: T2, recombinant PKC-ζ (Homo sapiens, UniProt Q05513); conditions: cited from earlier work
T2 sequence (Q05513 1-592): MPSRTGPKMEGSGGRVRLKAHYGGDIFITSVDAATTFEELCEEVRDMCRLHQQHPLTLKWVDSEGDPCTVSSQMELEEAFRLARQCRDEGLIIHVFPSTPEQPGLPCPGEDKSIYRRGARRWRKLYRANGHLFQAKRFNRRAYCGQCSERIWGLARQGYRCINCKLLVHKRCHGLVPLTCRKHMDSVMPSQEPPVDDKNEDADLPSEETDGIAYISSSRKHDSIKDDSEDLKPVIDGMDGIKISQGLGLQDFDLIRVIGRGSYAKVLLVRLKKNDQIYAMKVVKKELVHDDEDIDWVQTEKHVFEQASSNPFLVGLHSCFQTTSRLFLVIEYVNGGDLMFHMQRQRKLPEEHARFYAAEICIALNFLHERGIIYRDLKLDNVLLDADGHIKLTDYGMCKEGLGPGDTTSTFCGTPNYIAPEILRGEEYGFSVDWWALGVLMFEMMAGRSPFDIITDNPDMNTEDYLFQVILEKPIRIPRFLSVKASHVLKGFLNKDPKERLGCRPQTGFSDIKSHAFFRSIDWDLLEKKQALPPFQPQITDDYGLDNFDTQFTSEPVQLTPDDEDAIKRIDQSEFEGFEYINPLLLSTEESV

PKCι and PKCζ = conditions: cited from earlier work

Row | Compound | FoxO1 phosphorylation/inactivation [1] | inhibition of aPKC, Akt2, AMPK [1] | inhibition of brain aPKC (aPKC; at higher doses) | aPKC inhibition in liver, muscle, adipose tissue (aPKC; intact mice, employed doses) | effect on recombinant PKC-α, PKC-β, PKC-δ, PKCε, PKC-θ [2] | pIC50 (recombinant PKC-ι/λ [3]) | insulin-induced Akt activation (Akt) | pIC50 (recombinant PKC-ι/λ [4]) | insulin-induced increase in BACE1 levels (BACE1; 200 nM insulin, 24 hours, increasing concentrations of ICAPP) | basal/resting levels of BACE1 (BACE1; at higher levels of inhibitor) | insulin-induced increase in NFκB activity (NFκB) | insulin-induced increases in PKC-λ/ι activity, BACE1 activity and production of Aβ1-40/42 [5] | pIC50 (recombinant PKC-ζ) | insulin activation of aPKC (PB1 site) (PKCι and PKCζ)
1 | NC(=O)c1ncn([C@@H]2C[C@H](COP(=O)(O)O)[C@@H](O)[C@H]2O)c1N [ICAPP] | increase FoxO1 phosphorylation/inactivation | inhibit aPKC but not Akt2 or AMP-activated kinase (AMPK) | inhibit brain aPKC | inhibit aPKC in liver, but not in muscle or adipose tissue | no effect | 8.00 to 9.00 | not Akt activation | 8.00 to 9.00 | diminished | reduced basal/resting levels of BACE1 | diminished | blocked | 6.30 to 6.70 | 
2 | O=C(O)CC([S-])C(=O)O.[Au+] (centres unmarked) [aurothiomalate] |  |  |  |  |  |  |  |  |  |  |  |  |  | inhibit insulin activation of aPKC
